Several values for one entry are separate records, joined by “and”; a condition that tells them apart may be missing. Equal entries are not always repeated.
Legend:
[1] = tested on: sexually experienced male rats; test: Penile erection index (noncontact erection test); format: in vivo, rat; settings: for erectile response: oral treatment; for ED50: Rattus norvegicus, linear regression of proportion of responding rats, read-out: effective dose ED50 (dose required to give 50% responding rats)
Procedure: The penile erection index is an established means of determining the erection promoting properties of a substance. Determination of penile erection in a noncontact position was calculated as reported previously (Haripriya V M. et al., Andrologia 51 (2019) e13180; Sharma V. et al., J Ethnopharmacol 143 (2012) 201-206, the contents of each of which are hereby incorporated by reference in their entirety). The sexually experienced male rats of all groups were given the treatment 30 minutes before experimentation. The number of animals for each dose was ten rats in each experiment. […] The results shown are the average of three separate experiments. Control animals were given 0.5% CMC as a vehicle.
The rats of each group were placed in the observation cages (five at a time) divided into half by two sheets of metal mesh, preventing contact but allowing auditory, visual and olfactory stimuli. After a 5-min adaptation period, the test was started by placing an estrus female on the other side of the cage. Penile erection was recorded when the rats bent down to lick their erect penis. Homosexual mounting was also counted when a male rat mounted another male rat performing pelvic thrusts with or without a penile erection. […] The effective dose ED50 (the dose required to give 50% responding rats) for examined compounds was calculated using linear regression analysis by GraphPad software with the proportion of responding rats as the input data and expressed as μmol/kg.

[2] = tested on: male rats; test: Copulatory behavior testing; format: in vivo, rat; settings: 5 mg/kg oral; for copulatory efficiency (CE): CE=(IF/MF)x100; for mean intromission interval (MII): MII=EL/IF
Procedure: Sexually mature Wistar albino male and female rats weighing 150-180 g (10-14 weeks old) were used in our study. Males were trained for sexual behavior with estrus females, that is, two hours a day for one week, before the investigations. Females were brought into the estrous phase artificially by sequential injection of estradiol benzoate (Sigma) (25 μg/animal) and progesterone (Sigma) (250 μg/animal) subcutaneously, 48 and 4 hours before pairing, respectively. Only those sexually active animals were used subsequently in the study. Sexually active rats were isolated and housed in separate cages at room temperature (24±2° C.) on a reversed day/night cycle with a relative humidity of 50-55% during the experimental period. All sexual studies were performed in a calm laboratory condition under subdued light. For the toxicity study, adult Wistar albino male rats were used separately. Rats were obtained from the Experimental Animal Care Center, College of Pharmacy, King Saud University. Animals were fed with a standard pellet diet and provided water ad libitum. All experiments were performed per the protocols and recommendations of the NIH Guide for the Care and Use of Laboratory Animals and the legal requirements of King Saud University for investigations on humans and animals.
Based on a preliminary study to select the appropriate dose for the promising synthesized compounds, the compounds were administered separately to sexually experienced male rats by oral gavage at 5 mg/kg in a 0.5% sodium carboxymethyl cellulose (CMC) vehicle. […] All solutions were freshly prepared at a concentration that allowed the administration of 1 ml/kg.
After drug treatment, rats were housed separately in transparent cages for acclimation. Thirty minutes after drug treatment, a sexually receptive female rat with estrous phase was introduced in each cage for 30 min and the following parameters of the copulatory behavior were recorded: namely mount latency (ML; time from introduction of the female until the first mount with or without penile insertion, it measures the degree of arousal or sexual interest or libido of the male), mount frequency (MF; the number of mounts until ejaculation, it is a measure of the degree of the male's sexual interest or libido), intromission latency (IL; time from introduction of the female until the first intromission, it measures the degree of sexual excitement and erection), intromission frequency (IF; number of vaginal penetrations until ejaculation, it measures the degree of erection), ejaculation latency (EL; time from the first intromission until ejaculation, it determines the excellent organization of copulation in rats) and post-ejaculatory interval (PEI; time interval between an ejaculation and the following first mount, it measures the refractory period that comes after ejaculation). Latency values represent the number of seconds that elapses from the introduction of the female into the copulatory arena until the male executes the first mount, intromission or ejaculation. Frequency values represent the number of ejaculations, mounts or intromission recorded during the copulatory test.
Depending on these parameters, the following can be calculated: Copulatory efficiency (CE)=(IF/MF)×100 and mean intromission interval (MII)=EL/IF as previously described (Aydogan F. et al., J Ethnopharmacol 257 (2020) 112868; Besong E B. et al., Biochem Res Int 2018 (2018) 2869727, the contents of each of which are hereby incorporated by reference in their entirety). Experiments were repeated blindly three times using new fresh (unused) animals in each experiment.

[3] = tested on: rats; test: Evaluation of LD50 (acute oral toxicity); format: in vivo; settings: single oral dose 500-2000 mg/kg
From the text: (§1) Healthy rats were divided into groups of 10 rats and maintained as described above. Rats had free access to water and food, except for a short fasting period before the treatment with the single oral dose of compounds C9, C14 and C21 or the solvent. The compounds were formulated with 1% CMC. An approximate LD50 was initially determined in a pilot study by a so called ‘staircase method’ using a small number of animals (2 each dose) and increasing doses of tested compounds. Three doses were then chosen for the determination of oral median lethal dose (LDso) (500, 1000 and 2000 mg/kg) and given to three groups of rats (10 in each group). Another group of rats (6 rats) was given equal amounts of 1% CMC orally and served as a control group. […] After 24 hours, the number of dead rats was counted in each group. The percentage of animals that had died at each dose level was transformed to probits, and then LD50 was determined by the method of Miller and Tainter, 1944 as described previously (Randhawa M A, J Ayub Med Coll Abbottabad 21 (2009) 184-185, the contents of which are hereby incorporated by reference in their entirety).

[4] = Evaluation of LD50 (acute oral toxicity); format: in vivo; settings: rat, in vivo, po; single intragastric administration, rats, 24 h
From the text: as §1

[5] = target: Phosphodiesterase type 5 (PDE5) (Homo sapiens (Human), UniProt O76074); test: In vitro phosphodiesterase type 5 (PDE5) inhibition assay; format: biochemical; settings: purified PDE5, IMAP FP assay
[6] = tested on: male diabetic rats; test: Copulatory behavior testing in diabetic animals; format: in vivo, rat; settings: 5 mg/kg/day for 14 days; for ejaculation latency (EL) / intromission frequency (IF) / intromission latency (IL) / mount frequency (MF) / mount latency (ML) / post-ejaculatory interval (PEI) / copulatory efficiency (CE) / mean intromission interval (MII): male diabetic rats; for copulatory efficiency (CE): CE=(IF/MF)x100; for mean intromission interval (MII): MII=EL/IF; for sexual function in diabetic rats: versus diabetic control rats
Procedure: Nearly 90% of the population suffering from diabetic conditions report disturbances in sexual function, encompassing a decrease in libido, impotence and infertility (Kamenov Z A, Exp Clin Endocrinol Diabetes 123 (2015) 141-158). Diabetic was induced in experimental animals by intraperitoneal administration of streptozotocin in separate groups of male animals. Diabetes was induced by a single intraperitoneal injection of freshly prepared 65 mg/kg streptozotocin in […] citrate buffer, pH 4.4 (Mendez J D and Ramos H G, Arch Med Res 25 (1994) 367-375). All rats receiving streptozotocin were given a 10% sucrose solution in the first 48 h after injection to prevent hypoglycemia. After 72 h of streptozotocin administration, rats with fasting serum glucose more than 350 mg/dL were considered as diabetic. Glibenclamide was given by oral gavage once a day (10 mg/kg/day) to diabetic animals to avoid mortality throughout the investigation (Abdel-Aziz A A-M. et al., Eur J Med Chem 46 (2011) 4324-4329). The male rats were trained for sexual behavior study before induction of diabetes and treatment, as mentioned above. Diabetic rats were given a daily oral dose of 5 mg/kg of compounds C9, C14 and C21 for 14 consecutive days. The sexual behavior of the animals was assessed on day 15 of the treatment. The copulatory behavior testing was performed, and CE and MII were calculated.

| Structure (SMILES) | erectile response ([1]; 1.25-5 mg/kg) | penile erection index (PEI) ([1]; oral, dose 1.25 mg/kg) | penile erection index (PEI) ([1]; oral, dose 2.5 mg/kg) | penile erection index (PEI) ([1]; oral, dose 5 mg/kg) | efficacy in improving copulatory behavior [2] | ejaculation latency (EL) [2] [s] | intromission frequency (IF) [2] | intromission latency (IL) [2] [s] | mount frequency (MF) [2] | mount latency (ML) [2] [s] | post-ejaculatory interval (PEI) [2] [s] | copulatory efficiency (CE) [2] [%] | mean intromission interval (MII) [2] | toxic symptoms after oral dosing [3] | LD50 at 24 h [4] [mg/kg] | IC50 [5] | ejaculation latency (EL) [6] [s] | intromission frequency (IF) [6] | intromission latency (IL) [6] [s] | mount frequency (MF) [6] | other results |
| --- | --- | --- | --- | --- | --- | --- | --- | --- | --- | --- | --- | --- | --- | --- | --- | --- | --- | --- | --- | --- | --- |
| O=S(=O)(c1ccc(Cl)cc1Cl)N1CCC(c2ccccc2)CC1 [Compound C9, 1-((2,4-Dichlorophenyl)sulfonyl)-4-phenylpiperidine] | statistically elevated | 23.3 ± 3.3 | 53.3 ± 8.8 | 60.0 ± 5.7 | more pronounced | 368.3 | 12.8 | 177.6 | 23.6 | 74.6 | 355.6 | 55.2 | 29.0 | gradually became drowsy and less responsive | > 2000 | 47.9 nM | 223.3 | 4.3 | 305.1 | 10.6 | mount latency (ML) [6]: 137.1 s; post-ejaculatory interval (PEI) [6]: 552.8 s; copulatory efficiency (CE) [6]: 40.9%; mean intromission interval (MII) [6]: 53.1; sexual function in diabetic rats [6]: restored |
| O=S(=O)(c1ccc(Cl)c(Cl)c1)N1CCC(c2ccccc2)CC1 [Compound C11, 1-((3,4-Dichlorophenyl)sulfonyl)-4-phenylpiperidine] | – | – | – | – | more pronounced | 318.1 | 8.3 | 205.5 | 17.1 | 94.6 | 393.5 | 48.5 | 39.6 | – | – | 56.7 nM and 56.8 nM | – | – | – | – | ED50 ([1]; oral): 12.7 µmol/kg; melting point: 217 to 219 °C |
| NS(=O)(=O)c1ccc(CNC(=O)CN2CCC(Cc3ccccc3)CC2)cc1 [Compound C14, 2-(4-Benzylpiperidin-1-yl)-N-(4-sulfamoylbenzyl)acetamide] | statistically elevated | 26.6 ± 3.4 | 46.6 ± 3.3 | 90.0 ± 11.5 | more pronounced | 425.1 | 20.6 | 122.6 | 27.3 | 54.6 | 277.1 | 76.2 | 20.8 | gradually became drowsy and less responsive | > 2000 | 39.4 nM | 208.3 | 3.8 | 327.6 | 10.6 | ED50 ([1]; oral): 10.1 µmol/kg; animal response (proportion of responding rats) with dose ([1]; oral, 1.25-5 mg/kg): higher response; mount latency (ML) [6]: 158.0 s; post-ejaculatory interval (PEI) [6]: 505.6 s; copulatory efficiency (CE) [6]: 35.6%; mean intromission interval (MII) [6]: 55.7; sexual function in diabetic rats [6]: restored |
| O=S(=O)(c1ccc(Cl)cc1Cl)N1CCC(Cc2ccccc2)CC1 [Compound C21, 4-Benzyl-1-((2,4-dichlorophenyl)sulfonyl)piperidine] | statistically elevated | 26.5 ± 6.6 | 46.6 ± 3.3 | 63.3 ± 3.4 | more pronounced | 395.0 | 16.8 | 178.6 | 26.6 | 72.5 | 298.0 | 63.6 | 23.74 | gradually became drowsy and less responsive | > 2000 | 41.2 nM | 248.5 | 4.3 | 326.0 | 10.6 | ED50 ([1]; oral): 14.3 µmol/kg; mount latency (ML) [6]: 154.6 s; post-ejaculatory interval (PEI) [6]: 510.5 s; copulatory efficiency (CE) [6]: 41.1%; mean intromission interval (MII) [6]: 59.1; sexual function in diabetic rats [6]: restored |
| COc1ccc(CNC(=O)CN2CCC(Cc3ccccc3)CC2)cc1 [Compound C33, 2-(4-Benzylpiperidin-1-yl)-N-(4-methoxybenzyl)acetamide] | – | – | – | – | – | – | – | – | – | – | – | – | – | – | – | 99.8 ± 1.94 nM | – | – | – | – | melting point: 89 to 91 °C |
